Test results from US20240124432A1, “HERBICIDAL COMPOUNDS” (SYNGENTA CROP PROTECTION AG, priority 2020, published 2024).

What was measured:
Type in all cases: in vivo
LOLPE [1] = test: Post-emergence biological efficacy; details: Lolium perenne, 312 h, evaluated after 13 days, read-out: damage to plant (100=total damage to plant; 0=no damage to plant)
Description: (§1) Seeds of weeds and/or crops were sown in standard soil in pots. After cultivation for 14 days under controlled conditions in a glasshouse (at 24/19° C., day/night; 16 hours light), the plants were sprayed with an aqueous spray solution derived from the formulation of the technical active ingredient in a small amount of acetone and a special solvent and emulsifier mixture referred to as IF50 (11.12% Emulsogen EL360 TM+44.44% N-methylpyrrolidone+44.44% Dowanol DPM glycol ether), to create a 50g/l solution which was then diluted using 0.2% Genapol XO80 as diluent to give the desired final dose of test compound.
(§2) The test plants were then grown under controlled conditions in the glasshouse (at 24/18° C., day/night; 15 hours light; 50% humidity)and watered twice daily. After 13 days the test was evaluated (100=total damage to plant; 0=no damage to plant).

EPHHL [2] = test: Post-emergence biological efficacy; details: Euphorbia heterophylla, 312 h, evaluated after 13 days, read-out: damage to plant (100=total damage to plant; 0=no damage to plant)
Description: as §1, §2

ELEIN = test: Post-emergence biological efficacy; details: 312 h, evaluated after 13 days, read-out: damage to plant (100=total damage to plant; 0=no damage to plant)
Description: as §1, §2

AMAPA [3] = test: Post-emergence biological efficacy; details: Amaranthus palmeri, 312 h, evaluated after 13 days, read-out: damage to plant (100=total damage to plant; 0=no damage to plant)
Description: as §1, §2

ECHCG [4] = test: Post-emergence biological efficacy; details: Echinochloa crus-galli, 312 h, evaluated after 13 days, read-out: damage to plant (100=total damage to plant; 0=no damage to plant)
Description: as §1, §2

CHEAL = test: Post-emergence biological efficacy; details: Chenopodium album, 312 h, evaluated after 13 days, read-out: damage to plant (100=total damage to plant; 0=no damage to plant)
Description: as §1, §2

SETFA [5] = test: Post-emergence biological efficacy; details: Setaria faberi, 312 h, evaluated after 13 days, read-out: damage to plant (100=total damage to plant; 0=no damage to plant)
Description: as §1, §2

DIGSA = test: Post-emergence biological efficacy; details: Digitaria sanguinalis, 312 h, evaluated after 13 days, read-out: damage to plant (100=total damage to plant; 0=no damage to plant)
Description: as §1, §2

IPOHE [6] = test: Post-emergence biological efficacy; details: Ipomoea hederacea, 312 h, evaluated after 13 days, read-out: damage to plant (100=total damage to plant; 0=no damage to plant)
Description: as §1, §2

LOLPE [7] = test: Pre-emergence biological efficacy; details: Lolium perenne, 312 h, evaluated after 13 days, read-out: damage to plant (100=total damage to plant; 0=no damage to plant)
Description: as §1, with “one day” for “14 days”
(§3) The test plants were then grown under controlled conditions in the glasshouse (at 24/18° C., day/night; 15 hours light; 50% humidity) and watered twice daily. After 13 days the test was evaluated (100=total damage to plant; 0=no damage to plant).

EPHHL [8] = test: Pre-emergence biological efficacy; details: Euphorbia heterophylla, 312 h, evaluated after 13 days, read-out: damage to plant (100=total damage to plant; 0=no damage to plant)
Description: as §1, with “one day” for “14 days”
as §3

AMAPA [9] = test: Pre-emergence biological efficacy; details: Amaranthus palmeri, 312 h, evaluated after 13 days, read-out: damage to plant (100=total damage to plant; 0=no damage to plant)
Description: as §1, with “one day” for “14 days”
as §3

ECHCG [10] = test: Pre-emergence biological efficacy; details: Echinochloa crus-galli, 312 h, evaluated after 13 days, read-out: damage to plant (100=total damage to plant; 0=no damage to plant)
Description: as §1, with “one day” for “14 days”
as §3

SETFA [11] = test: Pre-emergence biological efficacy; details: Setaria faberi, 312 h, evaluated after 13 days, read-out: damage to plant (100=total damage to plant; 0=no damage to plant)
Description: as §1, with “one day” for “14 days”
as §3

IPOHE [12] = test: Pre-emergence biological efficacy; details: Ipomoea hederacea, 312 h, evaluated after 13 days, read-out: damage to plant (100=total damage to plant; 0=no damage to plant)
Description: as §1, with “one day” for “14 days”
as §3

SMILES | pest or weed control at 250 g/ha (LOLPE [1]) | pest or weed control at 250 g/ha (EPHHL [2]) | pest or weed control at 250 g/ha (ELEIN) | pest or weed control at 250 g/ha (AMAPA [3]) | pest or weed control at 250 g/ha (ECHCG [4]) | pest or weed control at 250 g/ha (CHEAL) | pest or weed control at 250 g/ha (SETFA [5]) | pest or weed control at 250 g/ha (DIGSA) | pest or weed control at 250 g/ha (IPOHE [6]) | pest or weed control at 250 g/ha (LOLPE [7]) | pest or weed control at 250 g/ha (EPHHL [8]) | pest or weed control at 250 g/ha (AMAPA [9]) | pest or weed control at 250 g/ha (ECHCG [10]) | pest or weed control at 250 g/ha (SETFA [11]) | pest or weed control at 250 g/ha (IPOHE [12])
CCOC(=O)C1(C)CC(c2cc(-c3ccc(C(F)(F)F)cc3Cl)c(F)cc2Cl)=NO1 (stereo not drawn) [Compound 1-7, Ethyl 3-[2-chloro-5-[2-chloro-4-(trifluoromethyl)phenyl]-4-fluoro-phenyl]-5-methyl-4H-isoxazole-5-carboxylate] | 10% | 90% | 70% | 90% | 30% | 100% | 60% | 40% | 90% | 0% | 0% | 30% | 0% | 0% | 0%
CCOC(=O)C1(C)CC(c2cc(-c3ccccc3Cl)c(F)cc2Cl)=NO1 (stereo not drawn) [Compound 1-19, Ethyl 3-[2-chloro-5-(2-chlorophenyl)-4-fluoro-phenyl]-5-methyl-4H-isoxazole-5-carboxylate] | 10% | 90% | 20% | 90% | 20% | 90% | 40% | 20% | 80% | 0% | 0% | 0% | 0% | 0% | 0%
CCOC(=O)C1(C)CC(c2cc(-c3ccc(C)cc3Cl)c(F)cc2Cl)=NO1 (stereo not drawn) [Compound 1-31, Ethyl 3-[2-chloro-5-(2-chloro-4-methyl-phenyl)-4-fluoro-phenyl]-5-methyl-4H-isoxazole-5-carboxylate] | 20% | 80% | 70% | 100% | 30% | 100% | 50% | 30% | 90% | 0% | 10% | 30% | 0% | 0% | 0%
CCOC(=O)C1(C)CC(c2cc(-c3cccc(C(F)(F)F)n3)c(F)cc2Cl)=NO1 (stereo not drawn) [Compound 1-43, Ethyl 3-[2-chloro-4-fluoro-5-[6-(trifluoromethyl)-2-pyridyl]phenyl]-5-methyl-4H-isoxazole-5-carboxylate] | 0% | 20% | 70% | 80% | 20% | 80% | 90% | 30% | 60% | 0% | 0% | 20% | 0% | 0% | 0%
CCOC(=O)C1(C)CC(c2cc(-c3cc(C(F)(F)F)cc(Cl)n3)c(F)cc2Cl)=NO1 (stereo not drawn) [Compound 1-67, Ethyl 3-[2-chloro-5-[6-chloro-4-(trifluoromethyl)-2-pyridyl]-4-fluoro-phenyl]-5-methyl-4H-isoxazole-5-carboxylate] | 0% | 40% | 0% | 20% | 0% | 10% | 20% | 10% | 30% | 0% | 0% | 10% | 0% | 0% | 0%
CCOC(=O)C1(C)CC(c2cc(-c3ccnc(Cl)c3Cl)c(F)cc2Cl)=NO1 (stereo not drawn) [Compound 1-535, Ethyl 3-[2-chloro-5-(2,3-dichloro-4-pyridyl)-4-fluoro-phenyl]-5-methyl-4H-isoxazole-5-carboxylate] | 50% | 100% | 80% | 100% | 80% | 100% | 100% | 90% | 100% | 0% | 0% |  | 10% | 40% | 40%
CCOC(=O)C1(C)CC(c2cc(-c3ccc(OC)nn3)c(F)cc2Cl)=NO1 (stereo not drawn) [Compound 1-703, Ethyl 3-[2-chloro-4-fluoro-5-(6-methoxypyridazin-3-yl)phenyl]-5-methyl-4H-isoxazole-5-carboxylate] | 70% | 100% | 70% | 100% | 80% | 100% | 70% | 70% | 60% | 0% | 0% |  | 0% | 0% | 0%
CCOC(=O)C1(C)CC(c2cc(-c3cnc(C(F)(F)F)cn3)c(F)cc2Cl)=NO1 (stereo not drawn) [Compound 1-751, Ethyl 3-[2-chloro-4-fluoro-5-[5-(trifluoromethyl)pyrazin-2-yl]phenyl]-5-methyl-4H-isoxazole-5-carboxylate] | 70% | 100% | 100% | 100% | 100% | 100% | 100% | 100% | 100% | 20% |  | 20% | 50% | 40% | 50%
CCOC(=O)C1(C)CC(c2cc(-c3cc(C(F)(F)F)cnc3Br)c(F)cc2Cl)=NO1 (stereo not drawn) [Compound 1-835, Ethyl 3-[5-[2-bromo-5-(trifluoromethyl)-3-pyridyl]-2-chloro-4-fluoro-phenyl]-5-methyl-4H-isoxazole-5-carboxylate] |  |  |  |  |  |  |  |  |  | 0% | 0% | 70% | 0% | 0% | 10%
